From PubChem BioAssay AID1963976 (Molecular Pharmacology Branch, DTP, NCI, 2024)

Test system: 435261-313-R-J1-PDC tumor spheroid viability
Test: Anticancer human tumor 435261-313-R-J1-PDC patient-derived colon adenocarcinoma cell line growth inhibition [PI3K]
Details: spheroids with HUVEC and MSC; for IC50: curve of first compound; for viability, T/C: stronger effect = lower value; active = viability on the fitted dose curve at most 10% of control; inactive = the rest
Text: Combinatorial screen of targeted agents with the PI3K inhibitors inavolisib, alpelisib, duvelisib, and copanlisib in multi-cell type tumor spheroids
A high-throughput screen of multi-cell type tumor spheroids was designed to identify active combinations of targeted small molecules and PI3K pathway inhibitors. Complex spheroids include a stromal component modeled by human endothelial cells (HUVEC) and fibroblasts modeled by human mesenchymal stem cells (MSCs). The concentration ranges selected for each drug and investigational agent were based upon clinically achievable concentrations if the clinical Cmax of the agent was known.
Compounds. The drugs and investigational agents: inavolisib (NSC800729), alpelisib (NSC765974), duvelisib (NSC772469), copanlisib (NSC816437), ipatasertib (NSC767898), afuresertib (NSC778305), talazoparib (NSC767125), sapanisertib (NSC764658), selumetinib (NSC741078), tovorafenib (DAY101, NSC766906), vemurafenib (NSC761431), ravoxertinib (NSC781343), sotorasib (NSC818433), MRTX1133 (NSC 836407), abemaciclib (NSC 768073), palbociclib (NSC758247), venetoclax (NSC 766270), SY5609 (NSC837396), enzalutamide (NSC755605), and darolutamide (NSC825331), were obtained from the National Cancer Institute (NCI) Developmental Therapeutics Program Chemical Repository. The FDA-approved anticancer drug set is available from the NCI Developmental Therapeutics Program. […] The stock solutions were prepared in dimethyl sulfoxide (DMSO, Sigma-Aldrich, St. Louis, MO, cat. D2650) at 800-fold the tested concentration and stored at -70 degrees C prior to their use. All drugs and investigational agents were tested over a range starting from a high concentration at or near the clinical Cmax and decreasing in half-log increments. If the clinical Cmax for an agent had not been determined, the highest concentration tested was 10 microM.
Cell Culture. All cells were maintained in an incubator at 37 degrees C and 5% CO2 with 95% humidity. The PDC lines were cultured according to standard operating procedures established by the NCI PDMR (https://pdmr.cancer.gov/sops/default.htm). All PDCs were thawed and cultured in Matrigel-coated flasks prepared with a working solution of 1X Ham's F-12 nutrient mix, without supplementation (Invitrogen, Waltham, MA, cat. 11765054), 100 U/mL penicillin-streptomycin (Invitrogen, cat. 15140122), and 2.5% Matrigel (Corning Inc., Corning, NY, cat. 354248) for the first three passages. The 354836-022-R-J1-PDC, 475296-252-R-J1-PDC, and 997726-040-R-J2-PDC lines were cultured in 6A media, which includes advanced DMEM/F-12 (Thermo Fisher Scientific, cat. 12634028), 10 mM HEPES (Thermo Fisher Scientific, cat. 15630080), 1X GlutaMAX supplement (Thermo Fisher Scientific, cat. 35050061), 0.1 mg/mL primocin (InvivoGen, San Diego, CA, cat. ant-pm-2), 10% defined fetal bovine serum, heat inactivated (HyClone Laboratories Inc., Logan, UT, cat. SH30070.03HI), 50% L-WRN conditioned media (ATCC, cat. CRL-3276), 1.25 mM N-Acetyl-L-cysteine (Sigma-Aldrich, cat. A9165), 10 mM nicotinamide (Sigma-Aldrich, cat. N0636), 1X B-27 supplement (Thermo Fisher Scientific, cat. 17504044), 1X N-2 supplement (Thermo Fisher Scientific, cat. 17502048), and 10 microM Y-27632 dihydrochloride (Tocris Bioscience, Bristol, United Kingdom, cat. 1254). The 624824-186-R-J2-PDC line was cultured in 6C/Colon 1B media, which includes all 6A media components plus 50 ng/mL human EGF recombinant protein (Thermo Fisher Scientific, cat. PHG0311). […]

[1] = second compound 0.00316 µM, first compound 0.0316 µM
[2] = second compound 0.00316 µM, first compound 0.1 µM
[3] = second compound 0.00316 µM, first compound 0.316 µM
[4] = second compound 0.00316 µM, first compound 1 µM
[5] = second compound 0.00316 µM, first compound 3.16 µM
[6] = second compound 0.00316 µM, first compound 10 µM
[7] = second compound 0.01 µM, first compound 0.0316 µM
[8] = second compound 0.01 µM, first compound 0.1 µM
[9] = second compound 0.01 µM, first compound 0.316 µM
[10] = second compound 0.01 µM, first compound 1 µM
[11] = second compound 0.01 µM, first compound 3.16 µM
[12] = second compound 0.01 µM, first compound 10 µM
[13] = second compound 0.0316 µM, first compound 0.0316 µM
[14] = second compound 0.0316 µM, first compound 0.1 µM
[15] = second compound 0.0316 µM, first compound 0.316 µM
[16] = second compound 0.0316 µM, first compound 1 µM
[17] = second compound 0.0316 µM, first compound 3.16 µM
[18] = second compound 0.0316 µM, first compound 10 µM
[19] = second compound 0.1 µM, first compound 0.0316 µM
[20] = second compound 0.1 µM, first compound 0.1 µM
[21] = second compound 0.1 µM, first compound 0.316 µM
[22] = second compound 0.1 µM, first compound 1 µM
[23] = second compound 0.1 µM, first compound 3.16 µM
[24] = second compound 0.1 µM, first compound 10 µM
[25] = second compound 0.316 µM, first compound 0.0316 µM
[26] = second compound 0.316 µM, first compound 0.1 µM
[27] = second compound 0.316 µM, first compound 0.316 µM
[28] = second compound 0.316 µM, first compound 1 µM
[29] = second compound 0.316 µM, first compound 3.16 µM
[30] = second compound 0.316 µM, first compound 10 µM
[31] = second compound 1 µM, first compound 0.0316 µM
[32] = second compound 1 µM, first compound 0.1 µM
[33] = second compound 1 µM, first compound 0.316 µM
[34] = second compound 1 µM, first compound 1 µM
[35] = second compound 1 µM, first compound 3.16 µM
[36] = second compound 1 µM, first compound 10 µM

CC1(C)CCC(CN2CCN(c3ccc(C(=O)NS(=O)(=O)c4ccc(NCC5CCOCC5)c([N+](=O)[O-])c4)c(Oc4cnc5[nH]ccc5c4)c3)CC2)=C(c2ccc(Cl)cc2)C1 + CC(Nc1ccc2c(c1)OCCn1cc(N3C(=O)OCC3C(F)F)nc1-2)C(N)=O
5.55 µM: IC50 (second compound 0.00316 µM)
< 0.0316 µM: IC50 (second compound 0.1 µM) | IC50 (second compound 0.316 µM) | IC50 (second compound 1 µM)
inactive: viability, T/C [1] 69.6% | viability, T/C [2] 90.5% | viability, T/C [3] 79.2% | viability, T/C [4] 127% | viability, T/C [5] 81.3% | viability, T/C [6] 17.4% | viability, T/C [7] 81.3% | viability, T/C [8] 77.5% | viability, T/C [9] 79% | viability, T/C [10] 90.8% | viability, T/C [11] 95.9% | viability, T/C [12] 24.8% | viability, T/C [13] 58.7% | viability, T/C [14] 59.2% | viability, T/C [15] 55.1% | viability, T/C [16] 65.8% | viability, T/C [17] 74.4% | viability, T/C [18] 11.7% | viability, T/C [19] 34.1% | viability, T/C [20] 39.8% | viability, T/C [21] 51.5% | viability, T/C [22] 35.1% | viability, T/C [23] 33.6% | viability, T/C [24] 10.8% | viability, T/C [25] 23.1% | viability, T/C [26] 23.3% | viability, T/C [27] 22.3% | viability, T/C [28] 24% | viability, T/C [29] 26.2% | viability, T/C [30] 8.22% | viability, T/C [31] 16.4% | viability, T/C [32] 20% | viability, T/C [33] 14.9% | viability, T/C [34] 18.3% | viability, T/C [35] 18.8% | viability, T/C [36] 7.07%
6.17 µM: IC50 (second compound 0.01 µM)
4.21 µM: IC50 (second compound 0.0316 µM)

C[C@@H](NC(=O)c1ncnc(N)c1Cl)c1ncc(C(=O)Nc2cc(C(F)(F)F)c(Cl)cn2)s1 + CC(Nc1ccc2c(c1)OCCn1cc(N3C(=O)OCC3C(F)F)nc1-2)C(N)=O
inactive: viability, T/C [1] 168% | viability, T/C [2] 171% | viability, T/C [3] 154% | viability, T/C [4] 148% | viability, T/C [5] 158% | viability, T/C [6] 116% | viability, T/C [7] 136% | viability, T/C [8] 152% | viability, T/C [9] 191% | viability, T/C [10] 135% | viability, T/C [11] 140% | viability, T/C [12] 108% | viability, T/C [13] 99.4% | viability, T/C [14] 126% | viability, T/C [15] 155% | viability, T/C [16] 158% | viability, T/C [17] 112% | viability, T/C [18] 85.4% | viability, T/C [19] 74.7% | viability, T/C [20] 72% | viability, T/C [21] 115% | viability, T/C [22] 77.2% | viability, T/C [23] 58.6% | viability, T/C [24] 32.5% | viability, T/C [25] 51.3% | viability, T/C [26] 47.6% | viability, T/C [27] 36.9% | viability, T/C [28] 39.3% | viability, T/C [29] 35.8% | viability, T/C [30] 9.29% | viability, T/C [31] 29.2% | viability, T/C [32] 33.5% | viability, T/C [33] 21.3% | viability, T/C [34] 27% | viability, T/C [35] 23% | viability, T/C [36] 6.01%
4.55 µM: IC50 (second compound 0.1 µM)
< 0.0316 µM: IC50 (second compound 0.316 µM) | IC50 (second compound 1 µM)
> 10 µM: IC50 (second compound 0.00316 µM) | IC50 (second compound 0.01 µM) | IC50 (second compound 0.0316 µM)
